Results as given in ChEMBL document CHEMBL1201862, “PubChem BioAssay data set” (2004).
Activity calls are given as the source filed them.

Experiments:
[1] = molecular target: T1, ORF 73 (Human herpesvirus 8, UniProt O40947); experiment: inhibitors of C-LANA binding to LBS DNA, dose response, biochemical, fluorescence polarization, cherry-picked samples (AID 504725); parameters: species or system Human gammaherpesvirus 8;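 note: fluorescence polarization of a labeled DNA duplex reporting LANA DNA binding; potency is for inhibitors that block LANA binding to the DNA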
T1 sequence (O40947 whole entry): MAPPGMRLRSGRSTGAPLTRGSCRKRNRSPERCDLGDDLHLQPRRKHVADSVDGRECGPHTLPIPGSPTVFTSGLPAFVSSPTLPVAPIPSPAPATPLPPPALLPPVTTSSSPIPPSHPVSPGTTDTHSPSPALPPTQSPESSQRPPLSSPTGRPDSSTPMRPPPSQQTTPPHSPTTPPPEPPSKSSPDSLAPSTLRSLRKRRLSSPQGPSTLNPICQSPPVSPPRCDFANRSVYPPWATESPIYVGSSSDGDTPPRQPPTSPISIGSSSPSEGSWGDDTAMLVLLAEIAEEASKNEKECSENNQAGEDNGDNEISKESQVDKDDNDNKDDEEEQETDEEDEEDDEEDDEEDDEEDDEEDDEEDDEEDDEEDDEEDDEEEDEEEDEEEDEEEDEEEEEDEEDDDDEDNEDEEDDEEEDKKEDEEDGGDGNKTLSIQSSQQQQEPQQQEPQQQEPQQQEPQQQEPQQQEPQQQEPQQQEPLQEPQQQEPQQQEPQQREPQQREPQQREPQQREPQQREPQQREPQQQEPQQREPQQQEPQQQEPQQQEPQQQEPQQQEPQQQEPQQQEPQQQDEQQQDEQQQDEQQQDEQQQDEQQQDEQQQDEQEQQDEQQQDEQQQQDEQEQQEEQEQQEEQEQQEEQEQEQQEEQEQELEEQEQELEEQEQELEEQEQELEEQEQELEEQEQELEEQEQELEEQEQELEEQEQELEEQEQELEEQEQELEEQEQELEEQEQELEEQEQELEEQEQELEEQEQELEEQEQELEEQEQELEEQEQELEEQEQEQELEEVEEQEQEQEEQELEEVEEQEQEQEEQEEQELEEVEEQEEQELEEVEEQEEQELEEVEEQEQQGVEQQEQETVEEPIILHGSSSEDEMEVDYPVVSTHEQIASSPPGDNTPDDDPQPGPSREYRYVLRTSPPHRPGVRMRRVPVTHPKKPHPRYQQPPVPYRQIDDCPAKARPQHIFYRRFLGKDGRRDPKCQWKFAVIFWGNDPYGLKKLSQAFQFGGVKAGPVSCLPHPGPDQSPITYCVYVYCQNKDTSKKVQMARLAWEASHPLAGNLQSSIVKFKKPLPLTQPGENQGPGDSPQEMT

[2] = HeLa cell cytotoxicity, dose response, cytotoxicity control for MgcRacGAP inhibitor project (AID 624300); type: functional
[3] = molecular target: T2, Oxysterols receptor LXR-beta (Homo sapiens, UniProt P55055); experiment: LXR agonists, Gal4 luciferase reporter, dose response, counter-screen for ssDAF-12 agonist project, cell-based, luminescence, HEK293, S. stercoralis campaign (AID 720737); type: functional; details: read-out: IC50 (the source's name)
T2 sequence (P55055 whole entry): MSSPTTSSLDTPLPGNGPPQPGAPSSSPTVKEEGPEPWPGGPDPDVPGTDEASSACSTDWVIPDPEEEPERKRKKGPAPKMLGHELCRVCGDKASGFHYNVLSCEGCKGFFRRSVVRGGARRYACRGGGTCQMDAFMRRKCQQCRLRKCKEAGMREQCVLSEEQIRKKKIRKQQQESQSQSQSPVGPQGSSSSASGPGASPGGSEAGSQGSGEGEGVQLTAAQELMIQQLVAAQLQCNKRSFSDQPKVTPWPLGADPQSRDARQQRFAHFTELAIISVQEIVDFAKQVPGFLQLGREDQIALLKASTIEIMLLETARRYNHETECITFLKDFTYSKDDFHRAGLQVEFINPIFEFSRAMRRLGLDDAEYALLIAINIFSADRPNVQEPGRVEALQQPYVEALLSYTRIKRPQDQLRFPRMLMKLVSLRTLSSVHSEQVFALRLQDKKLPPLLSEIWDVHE

[4] = inhibition of K1F phage lysis, E. coli UTI89, bacterial capsule biogenesis inhibitors, alamar blue (AID 488966); type: functional
[5] = system: HeLa; experiment: HeLa cell cytotoxicity, dose response, cytotoxicity control, 24 h, cherry-picked samples (AID 504726); type: functional, cell-based; details: Homo sapiens;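 note: potency for cytotoxicity as loss of luminescence signal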
[6] = Luminescence-based cell-based high throughput dose response assay to identify activators of the DAF-12 from the parasite S. stercoralis (ssDAF-12).; type: functional
[7] = molecular target: T3, Rac GTPase-activating protein 1 (Homo sapiens, UniProt Q9H0H5); experiment: MgcRacGAP GTPase-activating activity inhibitors, confirmation, biochemical, ADP Hunter fluorescence, primary and confirmatory (AID 624330); type: functional
T3 sequence (Q9H0H5 whole entry): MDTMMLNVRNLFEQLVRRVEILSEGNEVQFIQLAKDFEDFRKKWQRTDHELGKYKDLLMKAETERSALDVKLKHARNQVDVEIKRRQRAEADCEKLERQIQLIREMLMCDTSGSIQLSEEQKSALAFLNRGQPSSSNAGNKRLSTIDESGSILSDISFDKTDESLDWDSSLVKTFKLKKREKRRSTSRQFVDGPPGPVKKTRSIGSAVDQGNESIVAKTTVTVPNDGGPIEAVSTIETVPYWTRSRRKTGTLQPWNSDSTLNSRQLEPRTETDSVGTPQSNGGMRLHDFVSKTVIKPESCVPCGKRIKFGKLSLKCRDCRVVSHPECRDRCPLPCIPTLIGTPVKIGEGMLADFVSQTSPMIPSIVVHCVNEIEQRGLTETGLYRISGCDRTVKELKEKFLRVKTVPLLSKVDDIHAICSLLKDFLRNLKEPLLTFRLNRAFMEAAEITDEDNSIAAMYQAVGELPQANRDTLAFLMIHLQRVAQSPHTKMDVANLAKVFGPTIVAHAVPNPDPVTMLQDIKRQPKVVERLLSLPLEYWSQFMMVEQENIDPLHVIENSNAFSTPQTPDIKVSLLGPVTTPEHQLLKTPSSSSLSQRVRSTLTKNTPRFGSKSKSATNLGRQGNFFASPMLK

[8] = nmpC-GFP reporter inhibition in S. Typhimurium, dose response, counter-screen for PhoP regulon inhibitor project, purified and synthesized compounds, set 2 (AID 2834); type: functional
[9] = molecular target: Potassium voltage-gated channel subfamily KQT member 2 (Rattus norvegicus, UniProt O88943); experiment: retigabine-insensitive KCNQ2 potentiators, concentration-response, dose response, cell-based, retigabine-insensitive compounds (AID 2654); type: functional
Chain of Potassium voltage-gated channel subfamily KQT member 2 (O88943 whole entry): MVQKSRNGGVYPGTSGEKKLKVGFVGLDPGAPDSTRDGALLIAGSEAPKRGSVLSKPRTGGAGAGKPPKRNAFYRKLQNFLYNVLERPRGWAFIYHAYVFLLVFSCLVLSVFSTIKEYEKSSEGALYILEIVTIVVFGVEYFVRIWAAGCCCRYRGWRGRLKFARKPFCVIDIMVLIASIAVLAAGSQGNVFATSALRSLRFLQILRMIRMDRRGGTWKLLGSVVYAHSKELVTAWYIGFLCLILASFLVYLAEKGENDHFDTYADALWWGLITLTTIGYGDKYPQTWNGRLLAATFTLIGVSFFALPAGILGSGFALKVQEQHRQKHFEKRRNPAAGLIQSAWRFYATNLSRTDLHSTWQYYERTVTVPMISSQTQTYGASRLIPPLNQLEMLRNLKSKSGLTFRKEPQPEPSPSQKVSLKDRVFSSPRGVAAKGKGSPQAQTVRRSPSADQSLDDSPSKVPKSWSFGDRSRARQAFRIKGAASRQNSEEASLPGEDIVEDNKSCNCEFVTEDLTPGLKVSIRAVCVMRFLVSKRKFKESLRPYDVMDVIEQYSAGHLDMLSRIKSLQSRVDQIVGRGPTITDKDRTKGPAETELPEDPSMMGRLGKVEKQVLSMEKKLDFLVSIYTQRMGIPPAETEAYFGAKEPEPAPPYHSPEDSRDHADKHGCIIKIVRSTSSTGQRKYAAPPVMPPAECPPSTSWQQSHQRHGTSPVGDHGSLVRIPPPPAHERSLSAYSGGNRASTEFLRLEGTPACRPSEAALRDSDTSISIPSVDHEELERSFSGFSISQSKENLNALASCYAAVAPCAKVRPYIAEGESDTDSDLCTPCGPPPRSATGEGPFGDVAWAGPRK

[10] = Shn3 3'UTR reporter inhibitors, dose response, cell-based, Clone20 osteoblasts, firefly luciferase, cherry-picked (AID 624132); type: functional;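 note: firefly luciferase luminescence from reporter carrying the Shn3 3'UTR in osteoblasts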
[11] = molecular target: NACHT, LRR and PYD domains-containing protein 3 (Homo sapiens, UniProt Q96P20); experiment: NALP3 inhibitors in yeast, dose response, luminescent (AID 488799); type: functional
Chain of NACHT, LRR and PYD domains-containing protein 3 (Q96P20 whole entry, the tested form may be a part): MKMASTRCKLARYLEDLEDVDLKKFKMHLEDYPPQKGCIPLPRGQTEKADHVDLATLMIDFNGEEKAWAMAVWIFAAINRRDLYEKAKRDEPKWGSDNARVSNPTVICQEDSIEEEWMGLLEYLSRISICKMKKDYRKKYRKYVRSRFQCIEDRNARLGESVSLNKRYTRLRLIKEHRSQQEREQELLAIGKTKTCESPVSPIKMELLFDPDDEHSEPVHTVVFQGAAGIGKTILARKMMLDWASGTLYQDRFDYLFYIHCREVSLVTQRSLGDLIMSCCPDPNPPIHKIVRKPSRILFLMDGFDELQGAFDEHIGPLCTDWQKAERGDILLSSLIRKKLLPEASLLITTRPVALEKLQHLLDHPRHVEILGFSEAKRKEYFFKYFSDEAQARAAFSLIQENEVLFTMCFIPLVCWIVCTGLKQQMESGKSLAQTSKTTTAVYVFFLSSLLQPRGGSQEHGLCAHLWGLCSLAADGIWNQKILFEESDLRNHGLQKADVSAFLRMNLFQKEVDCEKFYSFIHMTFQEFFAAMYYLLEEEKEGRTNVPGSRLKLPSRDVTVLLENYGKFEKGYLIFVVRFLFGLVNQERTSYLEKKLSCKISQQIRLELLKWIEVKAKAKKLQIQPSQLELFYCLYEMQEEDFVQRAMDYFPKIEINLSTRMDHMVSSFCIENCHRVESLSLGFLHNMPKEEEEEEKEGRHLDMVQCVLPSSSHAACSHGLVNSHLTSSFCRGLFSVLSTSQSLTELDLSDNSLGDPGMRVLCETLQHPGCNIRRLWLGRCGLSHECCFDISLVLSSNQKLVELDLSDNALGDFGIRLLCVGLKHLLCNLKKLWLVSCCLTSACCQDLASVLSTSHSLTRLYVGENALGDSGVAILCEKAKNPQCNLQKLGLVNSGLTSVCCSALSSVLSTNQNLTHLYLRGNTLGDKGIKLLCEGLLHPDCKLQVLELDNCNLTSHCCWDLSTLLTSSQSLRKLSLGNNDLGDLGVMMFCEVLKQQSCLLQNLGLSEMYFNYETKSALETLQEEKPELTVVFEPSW

[12] = system: BJ; experiment: cytotoxicity toward BJ-TERT-LT-ST fibroblasts, dose response, cell-based, RAS-independent, luminescence (AID 1935); type: functional; details: Homo sapiens;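 note: BJ fibroblasts immortalized with TERT plus LT and ST oncogenes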
[13] = system: H4; experiment: Luminescence Cell-Based Dose Response HTS to Identify Activators of 5'UTR Stem-Loop Driven Prion Protein mRNA Translation in H4 Neuroglioblastoma Cells. [Related pubchem assays: 1829 (Project Summary), 1814 (Primary HTS)]; type: functional; details: Homo sapiens
[14] = molecular target: T4, Serine/threonine-protein phosphatase (Candida dubliniensis (strain CD36 / CBS 7987 / NCPF 3949 / NRRLY-17841) (Yeast), UniProt B9W6M3); experiment: calcineurin pathway inhibitors in yeast reporter, dose response, S. cerevisiae, CDRE-lacZ, luminescence, secondary (AID 2388); type: functional, cell-based;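 note: yeast reporter cells carrying a calcineurin-responsive lacZ construct stimulated with calcium chloride; luminescent beta-galactosidase reporter signal in whole cells rather than isolated phosphatase activity; potency for inhibition where a drop in reporter signal means calcineurin blockade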
T4 sequence (B9W6M3 whole entry): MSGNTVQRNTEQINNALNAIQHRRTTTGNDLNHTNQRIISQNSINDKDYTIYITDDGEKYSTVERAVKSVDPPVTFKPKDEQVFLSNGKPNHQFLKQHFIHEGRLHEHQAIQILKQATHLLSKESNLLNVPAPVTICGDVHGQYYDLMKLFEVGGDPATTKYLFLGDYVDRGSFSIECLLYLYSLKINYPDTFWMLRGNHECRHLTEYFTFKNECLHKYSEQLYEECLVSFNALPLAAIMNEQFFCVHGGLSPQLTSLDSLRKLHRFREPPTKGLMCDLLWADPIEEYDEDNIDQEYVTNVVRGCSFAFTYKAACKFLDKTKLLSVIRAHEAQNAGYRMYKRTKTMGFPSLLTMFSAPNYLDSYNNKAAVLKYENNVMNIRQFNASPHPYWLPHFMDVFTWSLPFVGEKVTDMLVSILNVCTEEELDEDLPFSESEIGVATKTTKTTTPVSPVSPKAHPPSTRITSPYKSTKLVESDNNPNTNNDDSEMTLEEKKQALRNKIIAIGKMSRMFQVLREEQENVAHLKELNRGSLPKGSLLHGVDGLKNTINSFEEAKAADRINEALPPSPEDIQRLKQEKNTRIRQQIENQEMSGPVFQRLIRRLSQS

[15] = system: BJ; experiment: cytotoxicity toward BJ-TERT fibroblasts, dose response, cell-based, RAS-independent, luminescence (AID 1933); type: functional; details: Homo sapiens
[16] = system: Vero; experiment: cells; type: functional; details: Chlorocebus sabaeus
[17] = system: Vero; experiment: host cell cytotoxicity of antiviral hits, dose response, cytotoxicity control for West Nile virus antiviral project, secondary assay (AID 1650); type: functional; details: Chlorocebus sabaeus
[18] = control 3'UTR Renilla luciferase suppression, dose response, counter-screen for Shn3 inhibitor project, cell-based, Clone20-Shn3RL, cherry-picked (AID 624133); type: functional
[19] = NIH-3T3 fibroblast cytotoxicity, dose response, cytotoxicity control, cell-based, fluorescence, Alamar Blue, secondary assay (AID 2327); type: functional;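 note: NIH-3T3 mouse fibroblasts cultured with fluconazole at 8 µg/mL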
[20] = C. albicans growth with fluconazole, confirmation, fluorescence, retest (AID 2467); type: functional, cell-based
[21] = system: BJ; experiment: cells; type: functional, cell-based; details: Homo sapiens
[22] = system: Jurkat; experiment: antigen receptor-induced NF-kB inhibitors, dose response, Jurkat, luciferase reporter, luminescence, B- and T-cell (AID 489004); type: functional, cell-based; details: Homo sapiens;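 note: NF-kB luciferase reporter Jurkat cells stimulated with PMA plus ionomycin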
[23] = cytotoxicity in HEK-293T NF-kB-Luc cells, dose response, cytotoxicity control for B/T-cell NF-kB inhibitor project, cell-based, uHTS hits (AID 489019); type: functional;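 note: IC50 reflects cytotoxicity as loss of cell viability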
[24] = HepG2 cell cytotoxicity, dose response, cytotoxicity control for Shn3 inhibitor project, CellTiter-Glo, cherry-picked (AID 624134); type: functional, cell-based
[25] = cytotoxicity toward DRD oncogenic fibroblasts, dose response, cell-based, non-viral oncogenic, luminescence (AID 1934); type: functional; details: Homo sapiens

Compound: CNc1c2cccc(C)c2nc2c(C(=O)NCCN(C)C)cccc12
- AC50 [1]: 5.35 µM (active)
- CC50 [2]: 3.39 µM (active)
- EC50 [3]: > 67.5 µM (inactive)
- IC50 [4]: > 150 µM (active)
- AC50 [5]: 1.01 µM (active)
- IC50 [6]: > 67.5 µM (inactive)
- IC50 [7]: 34.6 µM (active)

Compound: O=C1C2=C(Nc3ccccc3SC2c2ccc(I)cc2)c2ccccc21 (stereo not given)
- IC50 [8]: 232 µM (active)

Compound: O=C(Nc1ccc(Br)nc1)Nc1cccc(F)c1
- EC50 [9]: 4.04 µM (active)

Compound: C[C@@H]1C[C@@H]2O[C@H]2/C=C\C=C\C(=O)Cc2c(Cl)c(O)cc(O)c2C(=O)O1
- AC50 [10]: 6.4 µM (active)
- IC50 [11]: 8.41 µM (active)
- EC50 [12]: 1.81 µM (active)
- EC50 [13]: > 120 µM (not active)
- EC50 [14]: > 180 µM (inactive)
- EC50 [15]: 21 µM (active)
- CC50 [16]: 15.8 µM (active)
- CC50 [17]: 3.11 µM (active)
- AC50 [18]: 12.3 µM (active)
- EC50 [19]: 44.5 µM (inconclusive)
- EC50 [20]: 0.049 µM (active)
- EC50 [21]: 0.309 µM (active)
- IC50 [22]: 0.21 µM (active)
- IC50 [23]: > 80 µM (inactive)
- AC50 [24]: 49.8 µM (active)
- EC50 [25]: 2.08 µM (active)
